Assay results as given in patent publication US7109175B1, “Specific steady-state R-type CA2+ channel blockers and use thereof” (Universite de Sherbrooke, priority 2000, dated 2006).
“Also recorded” adds a separate entry of the source.

Columns and labels:
R-type Ca^2+ channel = experiment: Ca2+ channel blockers tested on the R-type channel (data not shown); assay type: cell-based
[1] = test system: writhing response in mice; experiment: Writhing response in mice (acetic acid, acetylcholine, kaolin); assay type: in vivo; details: i.p., mice; for ID50 ACETYLCHOLINE: acetylcholine-induced writhes; for ID50 KAOLIN: kaolin-induced writhes
Source text: The antinociceptive actions of compound MV 8612 and MV 8608 were investigated in different models of nociception in mice as reported previously (Vaz et al., 1996, J. Pharmacol. Exp. Ther. 278:304–312).

tail-flick = experiment: Tail-flick in mice; assay type: in vivo; details: i.p.
MG63 and FAOS-2 = experiment: Spontaneous proliferation of human osteoblast cancer lines; assay type: cell-based; details: 10^−8M
L-type Ca^2+ channel = experiment: Isradipine on L-type channel (data not shown); assay type: cell-based; details: read-out: ED50, block of L-type Ca2+ channel
anaesthetized rat = experiment: Anaesthetized rat, blood pressure and PAF hypotension; assay type: in vivo; details: rat, results not shown
Source text: On the other hand, in vivo administered PAF, induced a marked hypotension in the anaesthetized rat and guinea pig.

[2] = test system: vasoconstriction, hypotension and airways hypereactivity induced by PAF, ET-1 and organ transplantation; experiment: In vivo tests in rats, rabbits and guinea pigs (summary); details: rabbits, guinea pigs
[3] = test system: circulating ET-1, blood flow, hypertension
[4] = test system: plasma ET-1, attacks of Raynaud's phenomenon; details: patients, La Civita et al. 1996; cited from earlier work

COc1ccc([C@@H]2Sc3cc(Cl)ccc3N(CCN(C)C)C(=O)[C@@H]2OC(C)=O)cc1 [Clentiazem]
block of R-type Ca2+ channel (R-type Ca^2+ channel): none were found to block the R-type Ca^2+

COc1ccc(CCN(C)CCCC(C#N)(c2cc(OC)c(OC)c(OC)c2)C(C)C)cc1OC (stereo not shown) [D600]
block of R-type Ca2+ channel (R-type Ca^2+ channel): none were found to block the R-type Ca^2+

COc1cccc(CCN(C)CCCC(C#N)(c2ccc(OC)c(OC)c2)C(C)C)c1 (stereo not shown) [D888]
block of R-type Ca2+ channel (R-type Ca^2+ channel): none were found to block the R-type Ca^2+

COc1ccc([C@@H]2Sc3ccccc3N(CCN(C)C)C(=O)[C@@H]2OC(C)=O)cc1 [Diltiazem]
block of R-type Ca2+ channel (R-type Ca^2+ channel): none were found to block the R-type Ca^2+

COc1ccc2c(c1)c(CC(=O)O)c(C)n2C(=O)c1ccc(Cl)cc1 [INDOMETHACIN, indomethacin, reference compound]
ID50 ACETIC ACID ([1]; acetic acid-induced writhes): 1.2 (0.9–1.4) μmol/kg | ID50 ACETYLCHOLINE [1]: 0.8 (0.5–1.0) μmol/kg | ID50 KAOLIN [1]: 1.6 (1.4–1.8) μmol/kg

CN1CC[C@]23c4c5ccc(O)c4O[C@H]2[C@@H](O)C=C[C@H]3[C@H]1C5 [MORPHINE, morphine, reference compound]
ID50 ACETYLCHOLINE [1]: 1.4 (1.0–1.8) μmol/kg | ID50 KAOLIN [1]: 1.4 (1.2–1.7) μmol/kg | ID50 TAIL-FLICK (tail-flick): 6.0(5.7–6.4) μmol/kg

COc1ccc(CCN(C)CCCC(C#N)(c2ccc(OC)c(OC)c2)C(C)C)cc1OC (stereo not shown) [Verapamil]
block of R-type Ca2+ channel (R-type Ca^2+ channel): none were found to block the R-type Ca^2+

COC(=O)C1=C(C)NC(C)=C(C(=O)OC(C)C)C1c1cccc2nonc12 (stereo not shown) [isradipine]
spontaneous cell proliferation (MG63 and FAOS-2): reduced spontaneous cell proliferation | EC50 (L-type Ca^2+ channel): ~1 µM | intrinsic hypotensive effect (anaesthetized rat): marked intrinsic hypotensive properties | side effects in vivo [2]: exhibited significant side effects | hypertension and ET-1 plasma elevation associated with cyclosporin A (Sandimmune) treatment ([3]; allograft transplant, listed as Lomir/Dynacirc): blocked hypertension and ET-1 plasma elevation; also recorded: blocks the elevated circulating endothelin level | increase of circulating ET-1 and decrease of blood flow ([3]; organ transplants, rabbit, cyclosporin-A treated): restored ET-1 and blood flow levels | elevated plasma ET-1 level and frequency, severity of acute attacks of Raynaud's phenomenon [4]: significantly reduced

COC(=O)C1=C(C)NC(C)=C(C(=O)OC)C1c1ccccc1[N+](=O)[O-] [nifedipine]
intrinsic hypotensive effect (anaesthetized rat): marked intrinsic hypotensive properties
